Here are results for one molecule from patent publication US9453040B2, “Glycodendrimers of polypropyletherimine” (priority 2010, dated 2016).

The test has as its system pro-inflammatory cytokines such as IL-6, IL-8, IL-1 beta, TNF-alpha and MIP-1 beta. Nature of the test: Effect of unconjugated components on pro-inflammatory cytokines. The test is classed as cell-based. The following applies: even at high doses.

Turning to `N[C@H]1C(O)O[C@H](CO)[C@@H](O)[C@@H]1O` (stereo partly shown) [glucosamine], the “effect on pro-inflammatory cytokines such as IL-6, IL-8, IL-1 beta, TNF-alpha and MIP-1 beta” value was “no effect”.
